Source: patent US9655887B2, “Pharmaceutical composition and the use thereof, and application regime of said pharmaceutical composition for on-demand contraception” (BAYER PHARMA AKTIENGESELLSCHAFT, priority 2013, dated 2017)
Marks after values point to notes of the source that are not given here. Blank lines part the entries; values can stand above or below the compound they belong to.

Experiments:
[1] = test system: fertilizability of ovulated cumulus-oocyte complexes; experiment: In-vivo action on post-ovulatory in-vitro fertilization; parameters: species or system mice (strain: B6D2F1); settings: 1-10 mg/kg s.c.
Description: 4.3 In-Vivo Action on Post-Ovulatory In-Vitro Fertilization:
Substances can exert an influence on fertility by decreasing the fertilizability of oocytes or cumulus-oocyte complexes. In order to study such effects, substances can be administered in vivo and subjected to in vitro fertilization after ovulation of cumulus-oocyte complexes has taken place. The in-vitro fertilization rate, where no test substance is any longer present, allows conclusions as to the in-vivo effects of the test substances.
Immature female mice (strain: B6D2F1, Charles River, Suelzfeld, age: 19-25 days) were kept in Macrolon cages in rooms with controlled illumination (12 hrs darkness: 12 hrs light), fed with a standard diet and provided with drinking water ad libitum.
The mice were primed with PMSG (pregnant mare serum gonadotropin) (10 IU/animal i.p.). After 48 hours, a stimulus triggering ovulation was created in the animals by one administration of 10 IU/animal i.p. (hCG, human chorionic gonadotropin). The test substances were dissolved in benzyl benzoate/castor oil (1+4 v/v) and administered in a volume of 0.1 ml s.c. 1 hour before hCG (n=5 animals per group). Fourteen hours after hCG administration, the animals were killed. […] Twenty-four hours after the incubation with the sperms, the number of fertilized oocytes is established and the percentage fertilization rate determined

[2] = target: EP2 subtype of the human PGE2 receptor (hEP2 receptor) (Homo sapiens, UniProt P43116); experiment: cAMP antagonism test, human prostaglandin E2 (subtype EP2) receptor signal; assay type: cell-based
How it was run: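 Cells (625000 cells/ml, mixed with cAMP-d2) were preincubated 20 min at RT with compound ([…]). They were then stimulated 60 min at RT with a 3× PGE2 solution (1.5 nM) in PBS-IBMX and lysed for 20 min. cAMP was read by HTRF as the 665/620 nm ratio ×10000, with antagonism seen as a rise in FRET signal.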

[3] = test system: fertilizability of oocytes or cumulus-oocyte complexes; experiment: In-vivo effect on postovulatory in-vitro fertilization in the mouse (2-cell embryos); parameters: species or system mice (strain: B6D2F1); settings: vehicle 36.3 ± 9.5
Description: 7. In-Vivo Effect on Postovulatory In-Vitro Fertilization in the Mouse
Substances can influence fertility by lowering fertilizability of oocytes or cumulus-oocyte complexes. To examine such effects, substances can be administered in vivo and, after ovulation of cumulus-oocyte complexes, the latter are subjected to in-vitro fertilization. The in-vitro fertilization rate in the absence of test substance allows conclusions to be drawn on the in-vivo effects of the test substances.
Immature female mice (strain: B6D2F1, Charles River, Suelzfeld, age: 19-25 days) were kept in Makrolon cages in rooms with controlled lighting (12 hours of darkness: 12 hours of light), fed with a standard diet and provided with water ad libitum.
The mice were primed with PMSG (Pregnant Mare Serum Gonadotropin) (10 IU/animal i.p.). After 48 hours, by administration of 10 IU/animal i.p., an ovulation-triggering stimulus (hCG, human Chorion Gonadotropin) was generated in the animals. EP2 receptor antagonists were dissolved in benzyl benzoate/castor oil (1+4 v/v) and administered in a volume of 0.1 ml s.c. 1 hour prior to hCG (n=5 animals per group). The COX inhibitor was suspended in a carrier liquid (85 mg of Myrj®53 polyoxyl(50)stearate; CAS No. 9004-99-3) in 100 ml of 0.9% w/v NaCl solution), and the appropriate dose was administered in a volume of 2 ml/kg of body weight orally 1 hour prior to hCG. Fourteen hours after administration of hCG, the animals were sacrificed. Ovulated oocytes and cumulus-oocyte complexes were obtained from the ovarii bursa and/or the oviduct and subjected to in-vitro fertilization, with a sperm number of 40 000 sperms/0.5 ml for 1 hour being used for fertilization. Twenty-four hours after incubation with the sperms, the number of fertilized oocytes and the number of 2-cell embryos per animal were determined.

[4] = test system: ovulation; settings: cited from earlier work
[5] = test system: fertility of the female rat; experiment: Single administration of EP2 receptor antagonists and COX inhibitors alone or in combination, fertility of the rat (implantation sites); assay type: in vivo, female Han Wistar rats
Experimental: 6. Effect of a Single Administration of EP2 Receptor Antagonists and COX Inhibitors Alone or in Combination on the Fertility of the Rat
In the experiments below, female Han Wistar rats having a weight of 200-270 g were used. The animals were kept in Makrolon cages in rooms with controlled lighting (12 hours of darkness; 12 hours of light), fed with a standard diet and provided with water ad libitum.
EP2 receptor antagonists were dissolved in benzyl benzoate/castor oil (1+4 v/v), and the dose was administered in a volume of 1 ml/kg of body weight s.c. Optionally, EP2 receptor antagonists were also administered orally in the same vehicle as the COX inhibitors (see below). […]
The COX inhibitors were suspended in a carrier liquid (85 mg of Myrj®53 polyoxyl(50)stearate; CAS No. 9004-99-3) in 100 ml of 0.9% w/v NaCl solution), and the dose corresponding to the treatment group was administered in a volume of 2 ml/kg of body weight.
Prior to the start of the experiment, two cycles were observed using vaginal swabs. Only animals having a regular 4-day cycle were used in the experiment. The animals were randomized to the treatment groups.
The animals were treated once in the proestrus, the day in the cycle when the LH peak occurs in the evening, with the test substances either alone or in combination. On the evening of the proestrus, the female animals mated with a male rat. Successive mating was confirmed by detection of vaginal sperms in the vaginal swab the next morning. The effect on fertility was determined 9-15 days after mating by the number of implantation sites of the animals. […]

[6] = single administration in proestrus, Indomethacin 1 mg/animal, 16:00
[7] = Table 6.3, proestrus, Piroxicam 2 mg/animal, 12:30
[8] = single administration in proestrus, Piroxicam 2 mg/animal, 7:00
[9] = single administration in proestrus, Piroxicam 2 mg/animal, 13:00
[10] = single administration in proestrus, Piroxicam 2 mg/animal, 18:00, data of n = 5 animals

Chain of EP2 subtype of the human PGE2 receptor (hEP2 receptor) (P43116 whole entry): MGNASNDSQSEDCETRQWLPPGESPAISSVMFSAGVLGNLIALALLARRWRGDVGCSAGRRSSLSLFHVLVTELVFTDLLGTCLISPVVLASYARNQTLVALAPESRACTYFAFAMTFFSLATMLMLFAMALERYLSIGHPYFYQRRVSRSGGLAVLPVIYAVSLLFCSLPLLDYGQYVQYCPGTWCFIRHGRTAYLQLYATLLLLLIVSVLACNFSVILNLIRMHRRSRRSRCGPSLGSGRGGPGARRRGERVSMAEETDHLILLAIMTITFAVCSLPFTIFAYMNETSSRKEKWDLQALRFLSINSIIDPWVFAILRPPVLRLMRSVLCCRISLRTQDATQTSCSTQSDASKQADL

Structure (SMILES): COCCNC(=O)c1ccc2nn(CC3CCN(C(=O)c4ccc(Oc5ccc(C(F)(F)F)cc5)cc4)CC3)cc2c1C [Example 17, N-(2-methoxyethyl)-4-methyl-2-[(1-{4-[4-(trifluoromethyl)phenoxy]benzoyl}piperidin-4-yl)methyl]-2H-indazole-5-carboxamide]
- influence on the fertilizability of ovulated cumulus-oocyte complexes [1]: dose-dependent influence on the fertilizability of ovulated cumulus-oocyte complexes

- IC50 [2]: > 50 nM
Structure (SMILES): Cc1c(C(=O)NCC(F)(F)F)ccc2nn(CC3CCN(C(=O)c4ccc(Oc5ccc(C(F)(F)F)cc5)cc4)CC3)cc12 [Example E126, 4-methyl-N-(2,2,2-trifluoroethyl)-2-[(1-{4-[4-(trifluoromethyl)phenoxy]benzoyl}piperidin-4-yl)methyl]-2H-indazole-5-carboxamide]
- 2-Cell embryos per animal (mean ± SD) ([3]; E126 0.1 mg/animal s.c. 1 hour prior to hCG): 30.8 ± 7.3
- 2-Cell embryos per animal (mean ± SD) ([3]; E126 0.5 mg/animal s.c. 1 hour prior to hCG): 12.6 ± 3.6

Structure (SMILES): COc1ccc2c(c1)c(CC(=O)O)c(C)n2C(=O)c1ccc(Cl)cc1 [Indomethacin, indomethacin, reference compound]
- effect on ovulation ([4]; 2×100 mg per day over 5 days (Killick and Elstein 1987)): inhibition of ovulation
- delay of ovulation ([4]; 3×50 mg per day for at least 3 days, 6 women, in 5 cases (Athanasious et al.)): 2 to 12 days
- Absolute implantations number of 6 animals [5, 6]: 67
- Implantations per animal (mean ± SD) [5, 6]: 11.2 ± 2.9

Structure (SMILES): CN1C(C(=O)Nc2ccccn2)=C(O)c2ccccc2S1(=O)=O [Piroxicam, piroxicam, reference compound]
- Absolute implantations number of 6 animals [5, 7]: 71
- Implantations per animal (mean ± SD) [5, 7]: 11.8 ± 3.7
- Absolute implantations number of 6 animals [5, 8]: 81
- Implantations per animal (mean ± SD) [5, 8]: 13.5 ± 1.0
- Absolute implantations number of 6 animals [5, 9]: 68
- Implantations per animal (mean ± SD) [5, 9]: 11.3 ± 1.6
- Absolute implantations number of 6 animals [5, 10]: 53*
- Implantations per animal (mean ± SD) [5, 10]: 10.6 ± 1.5
- 2-Cell embryos per animal (mean ± SD) ([3]; Piroxicam 0.1 mg/animal orally 1 hour prior to hCG): 10.8 ± 3.8
